From paper PMC10026764, “Overcoming the imatinib-resistant BCR-ABL mutants with new ureidobenzothiazole chemotypes endowed with potent and broad-spectrum anticancer activity” (Journal of Enzyme Inhibition and Medicinal Chemistry, 2023)
Where two headings read alike, the source gives them in different places.

What was measured:
ABL^F317I = ABL^F317I (Homo sapiens, UniProt P00519, F317I); assay: In vitro enzymatic activity, imatinib-resistant mutant panel; assay type: biochemical
ABL^H396P = ABL^H396P (Homo sapiens, UniProt P00519, H396P); assay: as above; assay type: biochemical
ABL^M351T = ABL^M351T (Homo sapiens, UniProt P00519, M351T); assay: as above; assay type: biochemical
DDR1 = DDR1 (Homo sapiens, UniProt Q08345); assay: Kinase selectivity test against DDR1; assay type: biochemical
Experimental: On the other hand, to gain certain insights about the kinase selectivity of this array of ureidobenzothiazoles, compounds 2a and 2b were tested against DDR1 (Figure 4). Discoidin domain receptors (DDR1/2) are transmembrane receptor tyrosine kinases (RTKs), activated by fibrillar collagens. DDR1/2 and BCR-ABL share almost 61% sequence similarities in their ATP binding domains. […] This observation points out the merit of these ureidobenzothiazoles over the known BCR-ABL inhibitors in achieving exceptional selectivity towards BCR-ABL.

EKVX [1] = assay: NCI-60 five-dose SRB assay; assay type: cell-based; conditions: Homo sapiens, non-small cell lung cancer
ABL^E255K = ABL^E255K (Homo sapiens, UniProt P00519, E255K); assay: In vitro enzymatic activity, imatinib-resistant mutant panel
HOP-62 [2] = assay: NCI-60 five-dose SRB assay; assay type: cell-based; conditions: Homo sapiens; HOP-62, non-small cell lung cancer
HL-60(TB) = tested on: HL-60(TB); set-up: method as in earlier work; conditions: imatinib mesylate NSC 743414, NCI data; cited from earlier work
K-562 = tested on: K-562; set-up: method as in earlier work; conditions: imatinib mesylate NSC 743414, NCI data; cited from earlier work
MOLT-4 = tested on: MOLT-4; set-up: method as in earlier work; conditions: imatinib mesylate NSC 743414, NCI data; cited from earlier work
RPMI-8226 = tested on: RPMI-8226; set-up: method as in earlier work; conditions: imatinib mesylate NSC 743414, NCI data; cited from earlier work
EKVX [3] = tested on: EKVX; set-up: method as in earlier work; conditions: imatinib mesylate NSC 743414, NCI data; cited from earlier work
HOP-62 [4] = tested on: HOP-62; set-up: method as in earlier work; conditions: imatinib mesylate NSC 743414, NCI data; cited from earlier work
NCI-H23 = tested on: NCI-H23; set-up: method as in earlier work; conditions: imatinib mesylate NSC 743414, NCI data; cited from earlier work
NCI-H322M = tested on: NCI-H322M; set-up: method as in earlier work; conditions: imatinib mesylate NSC 743414, NCI data; cited from earlier work
NCI-H522 = tested on: NCI-H522; set-up: method as in earlier work; conditions: imatinib mesylate NSC 743414, NCI data; cited from earlier work
HCC-2998 = tested on: HCC-2998; set-up: method as in earlier work; conditions: imatinib mesylate NSC 743414, NCI data; cited from earlier work
HCT-116 = tested on: HCT-116; set-up: method as in earlier work; conditions: imatinib mesylate NSC 743414, NCI data; cited from earlier work
HCT-15 = tested on: HCT-15; set-up: method as in earlier work; conditions: imatinib mesylate NSC 743414, NCI data; cited from earlier work
HT29 = tested on: HT29; set-up: method as in earlier work; conditions: imatinib mesylate NSC 743414, NCI data; cited from earlier work
KM12 = tested on: KM12; set-up: method as in earlier work; conditions: imatinib mesylate NSC 743414, NCI data; cited from earlier work
SW-620 = tested on: SW-620; set-up: method as in earlier work; conditions: imatinib mesylate NSC 743414, NCI data; cited from earlier work
SF-539 = tested on: SF-539; set-up: method as in earlier work; conditions: imatinib mesylate NSC 743414, NCI data; cited from earlier work
SNB-19 = tested on: SNB-19; set-up: method as in earlier work; conditions: imatinib mesylate NSC 743414, NCI data; cited from earlier work
SNB-75 = tested on: SNB-75; set-up: method as in earlier work; conditions: imatinib mesylate NSC 743414, NCI data; cited from earlier work
MALME-3M = tested on: MALME-3M; set-up: method as in earlier work; conditions: imatinib mesylate NSC 743414, NCI data; cited from earlier work
M14 = tested on: M14; set-up: method as in earlier work; conditions: imatinib mesylate NSC 743414, NCI data; cited from earlier work
MDA-MB-435 = tested on: MDA-MB-435; set-up: method as in earlier work; conditions: imatinib mesylate NSC 743414, NCI data; cited from earlier work
SK-MEL-5 = tested on: SK-MEL-5; set-up: method as in earlier work; conditions: imatinib mesylate NSC 743414, NCI data; cited from earlier work
UACC-257 = tested on: UACC-257; set-up: method as in earlier work; conditions: imatinib mesylate NSC 743414, NCI data; cited from earlier work
OVCAR-3 = tested on: OVCAR-3; set-up: method as in earlier work; conditions: imatinib mesylate NSC 743414, NCI data; cited from earlier work
OVCAR-8 = tested on: OVCAR-8; set-up: method as in earlier work; conditions: imatinib mesylate NSC 743414, NCI data; cited from earlier work
NCI/ADR-RES = tested on: NCI/ADR-RES; set-up: method as in earlier work; conditions: imatinib mesylate NSC 743414, NCI data; cited from earlier work
SK-OV-3 = tested on: SK-OV-3; set-up: method as in earlier work; conditions: imatinib mesylate NSC 743414, NCI data; cited from earlier work
786-0 = tested on: 786-0; set-up: method as in earlier work; conditions: imatinib mesylate NSC 743414, NCI data; cited from earlier work
A498 = tested on: A498; set-up: method as in earlier work; conditions: imatinib mesylate NSC 743414, NCI data; cited from earlier work
ACHN = tested on: ACHN; set-up: method as in earlier work; conditions: imatinib mesylate NSC 743414, NCI data; cited from earlier work
CAKI-1 = tested on: CAKI-1; set-up: method as in earlier work; conditions: imatinib mesylate NSC 743414, NCI data; cited from earlier work
RXF 393 = tested on: RXF 393; set-up: method as in earlier work; conditions: imatinib mesylate NSC 743414, NCI data; cited from earlier work
SN12C = tested on: SN12C; set-up: method as in earlier work; conditions: imatinib mesylate NSC 743414, NCI data; cited from earlier work
UO-31 = tested on: UO-31; set-up: method as in earlier work; conditions: imatinib mesylate NSC 743414, NCI data; cited from earlier work
PC-3 = tested on: PC-3; set-up: method as in earlier work; conditions: imatinib mesylate NSC 743414, NCI data; cited from earlier work
DU-145 = tested on: DU-145; set-up: method as in earlier work; conditions: imatinib mesylate NSC 743414, NCI data; cited from earlier work
MDA-MB-231 = tested on: MDA-MB-231; set-up: method as in earlier work; conditions: imatinib mesylate NSC 743414, NCI data; cited from earlier work
HS 578T = tested on: HS 578T; set-up: method as in earlier work; conditions: imatinib mesylate NSC 743414, NCI data; cited from earlier work

Sequence of DDR1 (Q08345 19-913, species assumed): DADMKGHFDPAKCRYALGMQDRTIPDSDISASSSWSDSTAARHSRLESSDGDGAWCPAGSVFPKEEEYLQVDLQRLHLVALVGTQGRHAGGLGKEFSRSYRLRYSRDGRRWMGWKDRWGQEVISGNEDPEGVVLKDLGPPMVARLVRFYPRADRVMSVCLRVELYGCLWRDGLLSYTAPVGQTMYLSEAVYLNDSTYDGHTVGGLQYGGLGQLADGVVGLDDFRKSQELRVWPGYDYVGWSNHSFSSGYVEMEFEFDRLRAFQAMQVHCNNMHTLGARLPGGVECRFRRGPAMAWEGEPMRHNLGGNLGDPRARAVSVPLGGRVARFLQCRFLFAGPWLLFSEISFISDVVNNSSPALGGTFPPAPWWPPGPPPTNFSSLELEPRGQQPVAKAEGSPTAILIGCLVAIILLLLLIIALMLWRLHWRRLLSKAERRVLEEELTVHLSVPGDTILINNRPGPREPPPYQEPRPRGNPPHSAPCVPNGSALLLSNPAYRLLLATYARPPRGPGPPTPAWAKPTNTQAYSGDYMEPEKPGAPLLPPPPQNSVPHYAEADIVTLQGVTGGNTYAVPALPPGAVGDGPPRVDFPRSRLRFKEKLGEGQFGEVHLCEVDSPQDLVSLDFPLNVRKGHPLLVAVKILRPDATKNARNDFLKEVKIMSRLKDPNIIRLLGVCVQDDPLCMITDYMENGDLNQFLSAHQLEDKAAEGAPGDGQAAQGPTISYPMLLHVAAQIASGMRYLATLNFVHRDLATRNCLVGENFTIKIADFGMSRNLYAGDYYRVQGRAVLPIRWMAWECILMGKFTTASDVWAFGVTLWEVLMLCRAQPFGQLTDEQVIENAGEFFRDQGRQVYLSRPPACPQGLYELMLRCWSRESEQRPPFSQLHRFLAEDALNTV

## CCN1CCN(c2ccc(NC(=O)Nc3nc4ccc(-c5ccccc5OC)cc4s3)cc2)CC1 [Compound 2b]
ABL^F317I
  IC50: 5.16 nM
ABL^H396P
  IC50: < 1 nM
ABL^M351T
  IC50: 1.06 nM
DDR1
  IC50: 199 nM
EKVX [1]
  GI50: 1510 nM
ABL^E255K
  IC50: 2.47 nM

## COc1ccccc1-c1ccc2nc(NC(=O)Nc3cc(C(F)(F)F)cc(C(F)(F)F)c3)sc2c1 [Compound 2e]
HOP-62 [2]
  GI50: 2100 nM

## Cc1ccc(NC(=O)c2ccc(CN3CCN(C)CC3)cc2)cc1Nc1nccc(-c2cccnc2)n1 [Imatinib]
HL-60(TB)
  GI50: 13.5 µM
K-562
  GI50: 20 nM
MOLT-4
  GI50: 5.13 µM
RPMI-8226
  GI50: 6.05 µM
EKVX [3]
  GI50: 26.2 µM
HOP-62 [4]
  GI50: 21.5 µM
NCI-H23
  GI50: 15 µM
NCI-H322M
  GI50: 22.8 µM
NCI-H522
  GI50: 16.4 µM
HCC-2998
  GI50: 21.2 µM
HCT-116
  GI50: 12.6 µM
HCT-15
  GI50: 19.9 µM
HT29
  GI50: 3.97 µM
KM12
  GI50: 18.8 µM
SW-620
  GI50: 23.4 µM
SF-539
  GI50: 10.6 µM
SNB-19
  GI50: 38.6 µM
SNB-75
  GI50: 20.3 µM
MALME-3M
  GI50: 16.3 µM
M14
  GI50: 19.3 µM
MDA-MB-435
  GI50: 17.9 µM
SK-MEL-5
  GI50: 12.1 µM
UACC-257
  GI50: 21.1 µM
OVCAR-3
  GI50: 34.2 µM
OVCAR-8
  GI50: 27.7 µM
NCI/ADR-RES
  GI50: 23 µM
SK-OV-3
  GI50: 28.9 µM
786-0
  GI50: 16 µM
A498
  GI50: 22 µM
ACHN
  GI50: 25.2 µM
CAKI-1
  GI50: 34 µM
RXF 393
  GI50: 15.1 µM
SN12C
  GI50: 33.2 µM
UO-31
  GI50: 22.3 µM
PC-3
  GI50: 21.4 µM
DU-145
  GI50: 18.8 µM
MDA-MB-231
  GI50: 18.7 µM
HS 578T
  GI50: 14.6 µM
